Measurements taken from paper PMC8962335, “In Vivo Evaluation of ECP Peptide Analogues for the Treatment of Acinetobacter baumannii Infection” (Biomedicines, 2022).
Values after ≈ are worked out from the molar mass of the structure shown. Values joined by “and” are separate entries in the source; they are usually repeats but may differ in a detail not shown here. Identical values can stand only once. Where a SMILES comes first, the peptide text is derived from it. Where no end group is shown, it is not given here.

Columns and labels:
[1] = tested on: E. coli; assay type: cell-based, Escherichia coli; details: 24 h
Source text: (§1) A. baumannii strain (CECT 452, Valencia, Spain, ATCC 15308, Manassas, VA, USA) and Pseudomonas aeruginosa (P. aeruginosa) strain (CECT 4122, Valencia, Spain, ATCC 15692, Manassas, VA, USA) were from the Colección Española de Cultivos Tipo (CECT, Valencia, Spain). The Escherichia coli (E. coli) BL21 (DE3) strain was from Novagen (Darmstadt, Germany). MRC-5 cells were from the American Type Culture Collection (ATCC, Manassas, VA, USA) and HEK293T cell line was kindly provided by Dr. Raquel Pequerul (UAB, Barcelona, Spain).
(§2) The MIC is defined as the lowest concentration of one reagent to prevent visible growth of bacteria. The MIC determination was followed by the protocol described previously. Briefly, bacteria in exponential growth were used to prepare a suspension in MHB with the approximate number of 5 × 10^5 CFU/mL. Next, an aliquot of 90 μL of bacteria suspension was added into each well of the 96-well polypropylene plate. Immediately, 10 μL of peptide diluted by 0.01% acetic acid was added to the corresponding well to have a final concentration ranging from 20 to 0.16 μM. The plate was incubated for 24 h at 37 °C, 100 rpm. The presence or absence of bacterial growth was visually inspected and confirmed by reading OD600 with Tecan Microplate Reader Spark®. Each test was performed in triplicate.

[2] = tested on: P. aeruginosa; assay type: cell-based, Pseudomonas aeruginosa; details: 24 h
Source text: as §1, §2

[3] = tested on: A. baumannii; assay type: cell-based, Acinetobacter baumannii; details: 24 h
Source text: as §1, §2

[4] = in vitro; details: human, MRC-5 cells; for CC50 at 24 h: LD50 (MRC-5) 24 h; for CC50 at 48 h: LD50 (MRC-5) 48 h
Protocol: (§3) Cytotoxicity was measured for the MRC-5 and HEK293T cell lines by MTT assay. Cells were grown in 5% CO2 at 37 °C with MRC-5 cell line maintained in MEMα and HEK293T in DMEM/F-12 media, both of which were supplemented with 10% FBS. The cells were passaged in 25 cm^2 or 75 cm^2 flasks to prepare 96-well plates with 3 × 10^4 cells/well, which were incubated overnight. Next, serial dilutions of ECPep-D and ECPep-2D-Orn were added to have a final concentration ranging from 100 to 0.78 μM (375 μg/mL to 3 μg/mL) and colistin was added at final concentrations ranging from 300 to 2.34 μM (380 μg/mL to 3 μg/mL) in corresponding wells. After incubation to the specified time, the medium of the plate was replaced by fresh medium containing 0.5 mg/mL MTT solution and the mixture was incubated for 2.5 h in 5% CO2 at 37 °C. The medium was then removed, and formazan was dissolved by adding DMSO. The optical density (OD) was recorded by using a Victor^3 plate reader (PerkinElmer, Waltham, MA, USA) set at 540 nm and 620 nm as a reference. Each test was performed in triplicate.

[5] = human serum in vitro; cited from earlier work
[6] = tested on: MRC-5 cells; test: Cytotoxicity assay (MTT); details: all the assayed time range (up to 48 h), highest concentration 100 μM
Protocol: as §3

[7] = tested on: HEK293T cells; details: 48 h
Protocol: as §3

[8] = Tolerance study of peptides in mouse (Up and Down, main study, extra groups); assay type: in vivo, Balb/c mice; details: for clinical score: 30 mg/kg i.p., within 30 min; for clinical score / MTD: Up and Down assay; for MTD: in vivo, ip, one single dose, i.p., 1 mouse per peptide, read-out: maximum tolerated dose; for clinical signs after a single dose (main study): single i.p. dose: 20 mg/kg ECPep-D, 25 mg/kg ECPep-2D-Orn, all mice
Protocol: Initially, the “Up and Down” protocol was followed to determine the maximum lethal dose with some modifications. Briefly, one mouse was taken per peptide and increasing doses of the peptide were injected through the intraperitoneal (i.p.) route every 48 h, and the concentration at which the mouse had severe clinical symptoms or died was determined (Figure 1a).
Figure 1 Toxicity study plans. (a) “Up and Down” protocol: 1 mouse was injected, starting at a very low peptide dose and observed at 48 h intervals. […] (b) Main study: mice were divided into groups randomly; 1 as well as 2 peptide doses below the lethal dose from the “Up and Down” assay was given two times per day for 3 days (the protocol was readjusted in case of emergency owing to ethical principles, as detailed in the results section and Table S1). An extra group is for the vehicle. (c) Last study: Peptide was tested in smaller groups at lower doses depending on the results obtained from the main study.
Once the lethal concentration had been determined, we continued with the “main study” (Figure 1b). Two groups of 6 female mice were used at two different concentrations of both peptides, one and two concentrations below the maximum considered either by lethality or by clinical signs. The toxicity was further verified by mimicking the doses and frequency foreseen in the previous study, i.e., two doses per day for 3 days as the initial plan.
There was also an extra group to confirm the non-toxicity of the vehicle. For extra caution, some additional doses were applied to confirm the safety dose in case of repeated injections (Figure 1c).
Body weight (BW, g) of mice was measured before every injection and % BW gain was calculated. % BW gain = (new BW − initial BW)/initial BW × 100%(1)
In the tolerance study, for the “Up and Down” assay, the BW was recorded twice on the administration day and, for the “main study”, it was measured every day at the first 3 days and then at some selected days until the 16th day, when the monitoring was finished. In both efficacy assays, BW was recorded once a day but on the first day (Day 0), a second measure was conducted at 8 h.
The clinical symptoms were assessed through a scoring system, which contains 9 items, including changes of body weight, behavior, breathing, skin, hair, eyes and gastrointestinal status (see full list at Table S2). The score for each item increases from 0 to 3 according to the severe levels, up to a total of 27. During the study, when an animal obtained a score of 3 in any of the parameters assessed with a maximum score of 3, euthanasia was carried out to apply the endpoint criteria. Euthanasia would also be practiced if the sum of several parameters that are less than 3 separately was ≥ 7.
In the tolerance study, the clinical score was recorded at about 10 min, 30 min, 1 h, 2 h, 4 h, 7 h, 24 h and 48 h after injecting the peptides for the “Up and Down” assay and in the main study, the clinical score were only monitored when the BW was measured. During the efficacy assay, the clinical score was recorded every 2–3 h on Day 0 and then twice every day.

In the case of “RPFTRAQWFAIQHISPRTIAMRAINNYRWR-NH2 [ECPep-L]”, the “MIC E. coli” value [1] is reported as 10 µM, the “MIC P. aeruginosa” value [2] is reported as 10 µM and the “MIC A. baumannii” value [3] is reported as 10 µM. The CC50 at 4 h ([4]; LD50 (MRC-5) 4 h) was 276 µM and > 1000 µg/mL and the “half-life time in human serum” value [5] was 0.2 h.

With `CC[C@H](C)[C@H](NC(=O)[C@H](C)NC(=O)[C@H](CCCN)NC(=O)[C@H](CCSC)NC(=O)[C@H](C)NC(=O)[C@@H](NC(=O)[C@@H](NC(=O)[C@H](CCCN)NC(=O)[C@@H]1CCCN1C(=O)[C@H](CO)NC(=O)[C@@H](NC(=O)[C@H](Cc1c[nH]cn1)NC(=O)[C@H](CCC(N)=O)NC(=O)[C@@H](NC(=O)[C@H](C)NC(=O)[C@H](Cc1ccccc1)NC(=O)[C@H](Cc1c[nH]c2ccccc12)NC(=O)[C@H](CCC(N)=O)NC(=O)[C@H](C)NC(=O)[C@H](CCCN)NC(=O)[C@@H](NC(=O)[C@H](Cc1ccccc1)NC(=O)[C@H]1CCCN1C(=O)[C@@H](N)CCCN)[C@@H](C)O)[C@@H](C)CC)[C@@H](C)CC)[C@@H](C)O)[C@@H](C)CC)C(=O)N[C@@H](CC(N)=O)C(=O)N[C@@H](CC(N)=O)C(=O)N[C@@H](Cc1ccc(O)cc1)C(=O)N[C@@H](CCCN)C(=O)N[C@@H](Cc1c[nH]c2ccccc12)C(=O)N[C@@H](CCCN)C(N)=O` [ECPep-2D-Orn] (HELM PEPTIDE1{[Orn].[dP].F.T.[Orn].A.Q.W.F.A.I.Q.H.I.S.P.[Orn].T.I.A.M.[Orn].A.I.N.N.Y.[Orn].W.[Orn].[am]}$$$$V2.0) the “MIC E. coli” value [1] was over 20 µM, the “MIC P. aeruginosa” value [2] was over 20 µM and the “MIC A. baumannii” value [3] was 5 µM (≈ 17.5 µg/mL). The CC50 at 24 h [4] was > 100 µM and > 351 µg/mL, the CC50 at 48 h [4] was > 100 µM and > 351 µg/mL and the “toxicity for MRC-5 at the highest tested concentration” value [6] was “no toxicity was observed”. The IC50 [7] was over 100 µM, the clinical score [8] was “over 6” and the MTD [8] was 25 mg/kg. The “clinical signs after a single dose (main study)” value [8] was “did not cause any obvious clinical signs” and the “half-life time in human serum” value [5] was over 8 h.

In the case of `CC[C@@H](C)[C@@H](NC(=O)[C@@H](C)NC(=O)[C@@H](CCCNC(=N)N)NC(=O)[C@@H](CCSC)NC(=O)[C@@H](C)NC(=O)[C@H](NC(=O)[C@H](NC(=O)[C@@H](CCCNC(=N)N)NC(=O)[C@H]1CCCN1C(=O)[C@@H](CO)NC(=O)[C@H](NC(=O)[C@@H](Cc1c[nH]cn1)NC(=O)[C@@H](CCC(N)=O)NC(=O)[C@H](NC(=O)[C@@H](C)NC(=O)[C@@H](Cc1ccccc1)NC(=O)[C@@H](Cc1c[nH]c2ccccc12)NC(=O)[C@@H](CCC(N)=O)NC(=O)[C@@H](C)NC(=O)[C@@H](CCCNC(=N)N)NC(=O)[C@H](NC(=O)[C@@H](Cc1ccccc1)NC(=O)[C@H]1CCCN1C(=O)[C@H](N)CCCNC(=N)N)[C@H](C)O)[C@H](C)CC)[C@H](C)CC)[C@H](C)O)[C@H](C)CC)C(=O)N[C@H](CC(N)=O)C(=O)N[C@H](CC(N)=O)C(=O)N[C@H](Cc1ccc(O)cc1)C(=O)N[C@H](CCCNC(=N)N)C(=O)N[C@H](Cc1c[nH]c2ccccc12)C(=O)N[C@H](CCCNC(=N)N)C(N)=O` [ECPep-D] (HELM PEPTIDE1{[dR].[dP].[dF].[dT].[dR].[dA].[dQ].[dW].[dF].[dA].[dI].[dQ].[dH].[dI].[dS].[dP].[dR].[dT].[dI].[dA].[dM].[dR].[dA].[dI].[dN].[dN].[dY].[dR].[dW].[dR].[am]}$$$$V2.0), the “MIC E. coli” value [1] is reported as 10 µM (≈ 37.6 µg/mL), the “MIC P. aeruginosa” value [2] is reported as 10 µM (≈ 37.6 µg/mL) and the “MIC A. baumannii” value [3] is reported as 10 µM (≈ 37.6 µg/mL). For the same molecule, the CC50 at 24 h [4] was 164 ± 33.2 mg/L (≈ 43.5 µM), the CC50 at 48 h [4] was 88.4 ± 17.8 mg/L (≈ 23.5 µM) and the clinical score [8] was “over 6”. The MTD [8] was 20 mg/kg and the “clinical signs after a single dose (main study)” value [8] was “did not cause any obvious clinical signs”.
